Data taken from PMC10541411 (Nature Communications, 2023).

Assays:
[1] = system: WT 53BP1^FFR IRIF in U2OS cells; test: 53BP1FFR ionizing radiation-induced foci (IRIF) formation, immunofluorescence, WT; type: cell-based, Homo Sapiens; conditions: 1 Gy X-ray, different concentrations of UNC3474
From the text: The foci-forming region (FFR; residues 1220–1711) of wild-type 53BP1 and mutants E1549P/D1550N (53BP1^FFR-PN) and E1549C/E1567C (53BP1^FFR-CC) were inserted into the retroviral vector POZ. The primers used to introduce the E1549P/D1550N mutations are: […] (forward) and […] (reverse). The primers used to introduce the E1549C/E1567C mutations are: […] (forward) and […] (reverse). The 53BP1^FFR constructs were stably expressed at a moderate level in U2OS cells. To probe the effect of UNC3474 on 53BP1^FFR IRIF formation, U2OS cells were grown on glass coverslips, pre-incubated for 1 h with various concentrations of UNC3474 and exposed to 1 Gy of X-ray radiation. After 1 h, the cells were fixed in 4% formaldehyde in PBS for 15 min at room temperature and blocked and permeabilized for 1 h in PBS containing 0.3% Triton X-100, 1% BSA, 10% fetal bovine serum. […]
Cell samples were subjected to z-stack scanning with a total depth of 5 μm to comprehensively capture all 53BP1^FFR and γH2A.X IRIF within the cell nuclei, which were fluorescently labeled with DAPI. […] To assess the quantification of 53BP1^FFR and γH2A.X foci per nuclei, a customized CellProfiler (version 3.0)[68] pipeline was employed. […]

53BP1^TT WT = 53BP1^TT WT (Homo sapiens, UniProt Q12888); test: Small angle X-ray scattering (SAXS); set-up: residues 1484-1603; made in house; host or cells: E. coli
Chain of 53BP1^TT WT (Q12888 1484-1603): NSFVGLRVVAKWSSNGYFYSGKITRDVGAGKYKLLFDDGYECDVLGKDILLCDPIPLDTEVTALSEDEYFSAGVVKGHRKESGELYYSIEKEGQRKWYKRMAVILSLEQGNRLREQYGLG
Protocol: SAXS measurements were performed at 10 °C and different concentrations (0.67, 1.33 and 2 mg/mL) of 53BP1^TT WT, free and in complex with 10-fold molar excess of UNC3474 or UNC1118, in 25 mM sodium phosphate, pH 7.5, 15 mM NaCl, as well as on control samples containing only the small molecule in the same buffer. SAXS data were collected at the Lawrence Berkeley National Laboratory SYBILS beamline 12.3.1 and analyzed using programs from the SAXS data analysis software ATSAS (version 2.4.2)[63],[64] including PRIMUS, GNOM, AUTOPOROD, GASBOR and CRYSOL. PRIMUS (version 3.0) was used for initial data processing. Radii of gyration (Rg) were calculated using the Guinier approximation. Distance distribution functions P(r) and maximum particle dimensions were computed using GNOM. Molecular volumes and weights were estimated using AUTOPOROD. Ab initio reconstructions of molecular envelopes were done using GASBOR 2.3i. CRYSOL was used to back calculate the scattering curves and determine the goodness of fit.
Supplementary Table 1 | SAXS reporting data.
Organism Homo Sapiens Homo Sapiens Homo Sapiens
Source E. coli E. coli E. coli
Solvent composition 25 mM sodium 25 mM sodium 25 mM sodium
phosphate, pH 7.5, 15 phosphate, pH 7.5, 15 phosphate, pH 7.5, 15
SAXS data collection parameters
Source SIBYLS beamline 12.3.1 at the Advanced Light Source […]
Beam geometry (size, sample-to-detector distance) 0.1 x 0.1 mm, 1.5 m
Method for monitoring radiation damage Varied exposure lengths were compared against one another
Exposure time, number of exposures 0.5 s, 1 s, 2 s exposures for each concentration
Sample configuration A 1 mm sample was placed between two mica windows in a
Software employed for SAXS data reduction, analysis and interpretation
SAS data reduction Subtraction using established programs at SIBYLS beamline 12.3.1
Basic analyses and merging of curves. PRIMUS from ATSAS 2.4.2
Shape/bead modeling GASBOR 2.3i

Rg, P(r) analysis, of 53BP1TT complex (53BP1^TT WT; 10-fold molar excess of ligand, free 53BP1TT 18.85 ± 0.069): 20.18 ± 0.038 Å
Rg, Guinier analysis, of 53BP1TT complex (53BP1^TT WT; 10-fold molar excess of ligand, free 53BP1TT 19.1 ± 0.2): 20.1 ± 0.1 Å
dmax, P(r) analysis, of 53BP1TT complex (53BP1^TT WT; 10-fold molar excess of ligand, free 53BP1TT 62.5): 69.4 Å
Porod volume of 53BP1TT complex (53BP1^TT WT; 10-fold molar excess of ligand, free 53BP1TT 21822): 37692 Å3
Structure (SMILES): CC(C)c1cccc(C(=O)NCCCNC(C)(C)C)c1 [UNC3474]
WT 53BP1FFR IRIF formation [1]: inhibited in a dose-dependent manner
changes in SAXS data upon complex formation (53BP1^TT WT; 10-fold molar excess of small molecule, 10 °C): agreed well with 53BP1^TT homodimerization
